20 molecules from patent publication US11090304B2 (Amgen Inc., priority 2018, dated 2021) can be followed below.

Experiment [1] deals with Phosphorylation of ERK1/2 in MIA PaCa-2 cells. The experiment can be described thus: Phospho-ERK1/2 MSD assay in MIA PaCa-2 cells. The class given is cell-based. The following applies: Homo sapiens, MIA PaCa-2, 2 h, read-out: p-ERK IC50 (2 h; MIA PaCa-2), 2 h compound treatment. In outline: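 In the procedure, cells were plated a day ahead at 25,000 per well. Next, a dilution series of compound in growth medium was added for 2 or 4 h. EGF (10 ng/mL) stimulation for 10 min preceded washing and RIPA lysis. Lysate phospho-ERK1/2 was read by MSD, with IC50 derived by 4-parameter logistic analysis.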

Experiment [2] has as its target GDP-bound KRAS protein (aa 1-169), containing both G12C and C118A amino acid substitutions (Homo sapiens, UniProt P01116, C118A/G12C). Description: Coupled nucleotide exchange assay (SOS-mediated, AlphaScreen). The following applies: 5 min compound pre-incubation. It is filed as biochemical. A general note: In Alpha technology, singlet oxygen from a donor bead excites a nearby acceptor bead.

Chain of GDP-bound KRAS protein (aa 1-169), containing both G12C and C118A amino acid substitutions (P01116 1-169 isoform P01116-2 G12C/C118A): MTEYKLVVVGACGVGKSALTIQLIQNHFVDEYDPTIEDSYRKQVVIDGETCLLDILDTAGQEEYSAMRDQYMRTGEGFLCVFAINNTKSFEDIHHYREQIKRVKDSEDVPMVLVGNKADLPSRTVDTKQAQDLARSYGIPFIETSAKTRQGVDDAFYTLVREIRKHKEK

For the molecule `C=CC(=O)N1CCN(c2nc(=O)n(-c3ncccc3CC(C)C)c3nc(-c4ccccc4F)c(Cl)cc23)[C@@H](C)C1` [Example 54-102, 6-chloro-7-(2-fluorophenyl)-4-((2S)-2-methyl-4-(2-propenoyl)-1-piperazinyl)-1-(3-(2-methylpropyl)-2-pyridinyl) pyrido[2,3-d]pyrimidin-2(1H)-one], the half-maximal inhibitory concentration (IC50) (usually the concentration that gives 50% inhibition) in experiment [1] came to 0.176 µM. In addition, in experiment [2], the “Coupled exchange IC50 (5 min)” value is reported as 0.161 | nda μM.
In the case of `C=CC(=O)N1CCN(c2nc(=O)n(-c3c(C(C)C)cccc3N(C)C)c3nc(-c4ccccc4F)c(Cl)cc23)[C@@H](C)C1` [Example 54-104, 6-chloro-1-(2-(dimethyl-amino)-6-(2-propanyl)phenyl)-7-(2-fluorophenyl)-4-((2S)-2-methyl-4-(2-propenoyl)-1-piperazinyl) pyrido[2,3-d]pyrimidin-2(1H)-one], the 50% inhibitory concentration (IC50) in experiment [1] was found to be 0.07 µM. Further, in experiment [2], the “Coupled exchange IC50 (5 min)” value is on record as 0.09 | nda μM.
As to `C=CC(=O)N1CCN(c2nc(=O)n(-c3c(C)cc(OC)nc3C(C)C)c3nc(-c4ccccc4F)c(Cl)cc23)[C@@H](C)C1` [Example 54-105, 6-chloro-7-(2-fluorophenyl)-1-(6-methoxy-4-methyl-2-(2-propanyl)-3-pyridinyl)-4-((2S)-2-methyl-4-(2-propenoyl)-1-piperazinyl) pyrido[2,3-d]pyrimidin-2(1H)-one], in experiment [1], the IC50 came to 0.089 µM. In addition, the “Coupled exchange IC50 (5 min)” value in experiment [2] is 0.07 | nda μM.
In the same order, the values of `C=CC(=O)N1CCN(c2nc(=O)n(-c3c(OC)ncnc3C(C)C)c3nc(-c4ccccc4F)c(Cl)cc23)[C@@H](C)C1` [Example 54-107, 6-chloro-7-(2-fluorophenyl)-1-(4-methoxy-6-(2-propanyl)-5-pyrimidinyl)-4-((2S)-2-methyl-4-(2-propenoyl)-1-piperazinyl) pyrido[2,3-d]pyrimidin-2(1H)-one] are 0.099 µM and 0.159 | nda μM.
As for `C=CC(=O)N1CCN(c2nc(=O)n(-c3c(C(C)C)nc[nH]c3=O)c3nc(-c4ccccc4F)c(Cl)cc23)[C@@H](C)C1` [Example 54-108, 6-chloro-7-(2-fluorophenyl)-4-((2S)-2-methyl-4-(2-propenoyl)-1-piperazinyl)-1-(6-oxo-4-(2-propanyl)-1,6-dihydro-5-pyrimidinyl) pyrido[2,3-d]pyrimidin-2(1H)-one], in experiment [1], the 50% inhibitory concentration (IC50) was determined as 3.77 µM. Further, the “Coupled exchange IC50 (5 min)” value in experiment [2] is 0.434 | nda μM.
In the same order, the values of `C=CC(=O)N1CCN(c2nc(=O)n(-c3cncnc3C(C)(C)C)c3nc(-c4ccccc4F)c(Cl)cc23)[C@@H](C)C1` [Example 54-110, 6-chloro-7-(2-fluorophenyl)-1-(4-(2-methyl-2-propanyl)-5-pyrimidinyl)-4-((2S)-2-methyl-4-(2-propenoyl)-1-piperazinyl) pyrido[2,3-d]pyrimidin-2(1H)-one] are 0.408 µM and 0.404 | nda μM.
On to `C=CC(=O)N1CCN(c2nc(=O)n(-c3n[nH]cc3C(C)C)c3nc(-c4ccccc4F)c(Cl)cc23)[C@@H](C)C1` [Example 54-111, 6-chloro-7-(2-fluorophenyl)-4-((2S)-2-methyl-4-(2-propenoyl)-1-piperazinyl)-1-(4-(2-propanyl)-1H-pyrazol-3-yl)pyrido[2,3-d]pyrimidin-2(1H)-one], for which the IC50 in experiment [1] was found to be 0.791 µM. In experiment [2], the “Coupled exchange IC50 (5 min)” value is 0.417 | nda μM.
In the same order, the values of `C=CC(=O)N1CCN(c2nc(=O)n(-c3cccnc3C(C)(C)C)c3nc(-c4ccccc4F)c(Cl)cc23)[C@@H](C)C1` [Example 54-112, 6-chloro-7-(2-fluorophenyl)-1-(2-(2-methyl-2-propanyl)-3-pyridinyl)-4-((2S)-2-methyl-4-(2-propenoyl)-1-piperazinyl) pyrido[2,3-d]pyrimidin-2(1H)-one] are 0.222 µM and 0.084 | nda μM.
In the same order, the values of `C=CC(=O)N1CCN(c2nc(=O)n(-c3c(C)noc3C(C)C)c3nc(-c4c(O)cccc4F)c(Cl)cc23)[C@@H](C)C1` [Example 55-1, 6-Chloro-7-(2-fluoro-6-hydroxyphenyl)-1-(3-methyl-5-(2-propanyl)-1,2-oxazol-4-yl)-4-((2S)-2-methyl-4-(2-propenoyl)-1-piperazinyl)pyrido[2,3-d]pyrimidin-2(1H)-one] are 0.226 µM and 0.124 | nda μM.
In the same order, the values of `C=CC(=O)N1CCN(c2nc(=O)n(-c3c(OC)ncnc3OC)c3nc(-c4c(O)cccc4F)c(Cl)cc23)[C@@H](C)C1` [Example 55-3, 6-chloro-1-(4,6-dimethoxy-5-pyrimidinyl)-7-(2-fluoro-6-hydroxyphenyl)-4-((2S)-methyl-4-(2-propenoyl)-1-piperazinyl)pyrido[2,3-d]pyrimidin-2(1H)-one] are 0.918 µM and 0.966 | nda μM.
For the molecule `C=CC(=O)N1CCN(c2nc(=O)n(-c3c(C)nc(C)nc3C(C)C)c3nc(-c4c(O)cccc4F)c(Cl)cc23)[C@@H](C)C1` [Example 55-4, 6-chloro-1-(2,4-dimethyl-6-(2-propanyl)-5-pyrimidinyl)-7-(2-fluoro-6-hydroxyphenyl)-4-((2S)-2-methyl-4-(2-propenoyl)-1-piperazinyl)pyrido[2,3-d]pyrimidin-2(1H)-one], the half-inhibitory concentration (IC50) in experiment [1] is 0.08 µM. In addition, the “Coupled exchange IC50 (5 min)” value in experiment [2] is listed as 0.057 | nda μM.
On the same counts, the results for `C=CC(=O)N1CCN(c2nc(=O)n(-c3c(C(C)C)nc(C)nc3C(C)C)c3nc(-c4ccccc4F)c(Cl)cc23)[C@@H](C)C1` [Example 55-5, 6-chloro-7-(2-fluorophenyl)-1-(2-methyl-4,6-di(2-propanyl)-5-pyrimidinyl)-4-((2S)-2-methyl-4-(2-propenoyl)-1-piperazinyl)pyrido[2,3-d]pyrimidin-2(1H)-one] are 0.031 µM and 0.045 | nda μM.
As to `C=CC(=O)N1CCN(c2nc(=O)n(-c3ccccc3CC(F)(F)F)c3nc(-c4c(O)cccc4F)c(Cl)cc23)[C@@H](C)C1` [Example 55-6, 6-chloro-7-(2-fluoro-6-hydroxyphenyl)-4-((2S)-2-methyl-4-(2-propenoyl)-1-piperazinyl)-1-(2-(2,2,2-trifluoroethyl)phenyl)pyrido[2,3-d]pyrimidin-2(1H)-one], the 50% inhibitory concentration (IC50) in experiment [1] was 0.317 µM. Further, in experiment [2], the “Coupled exchange IC50 (5 min)” value is reported as 0.318 | nda μM.
Regarding `C=CC(=O)N1CCN(c2nc(=O)n(-c3c(C)cccc3CC)c3nc(-c4ccccc4F)c(Cl)cc23)[C@@H](C)C1` [Example 55-9, 6-chloro-1-(2-ethyl-6-methylphenyl)-7-(2-fluorophenyl)-4-((2S)-2-methyl-4-(2-propenoyl)-1-piperazinyl)pyrido[2,3-d]pyrimidin-2(1H)-one], the IC50 in experiment [1] was found to be 0.214 µM. The “Coupled exchange IC50 (5 min)” value in experiment [2] is 0.24 | nda μM.
In the same order, the values of `C=CC(=O)N1CCN(c2nc(=O)n(-c3c(C)ccnc3CC)c3nc(-c4c(O)cccc4F)c(Cl)cc23)[C@@H](C)C1` [Example 55-10, 6-chloro-1-(2-ethyl-4-methyl-3-pyridinyl)-7-(2-fluoro-6-hydroxyphenyl)-4-((2S)-2-methyl-4-(2-propenoyl)-1-piperazinyl)pyrido[2,3-d]pyrimidin-2(1H)-one] are 0.156 µM and 0.123 | nda μM.
On the same counts, the results for `C=CC(=O)N1CCN(c2nc(=O)n(-c3c(C)noc3C(C)C)c3nc(-c4ccccc4F)c(Cl)cc23)[C@@H](C)C1` [Example 55-11, 6-chloro-7-(2-fluoropheny)-1-(3-methyl-5-(2-propanyl)-1,2-oxazol-4-yl)-4-((2S)-2-methyl-4-(2-propenoyl)-1-piperazinyl)pyrido[2,3-d]pyrimidin-2(1H)-one] are 0.235 µM and 0.309 | nda μM.
On the same counts, the results for `C=CC(=O)N1CCN(c2nc(=O)n(-c3c(C)noc3C(C)C)c3nc(-c4ccc(F)cc4F)c(Cl)cc23)[C@@H](C)C1` [Example 55-12, 6-chloro-7-(2,4-difuorophenyl)-1-(3-methyl-5-(2-propanyl)-1,2-oxazol-4-yl)-4-((2S)-2-methyl-4-(2-propenoyl)-1-piperazinyl)pyrido[2,3-d]pyrimidin-2(1H)-one] are 0.775 µM and 0.583 | nda μM.
Take `C=CC(=O)N1CCN(c2nc(=O)n(-c3c(C)ncnc3C(C)C)c3nc(-c4ccccc4F)c(Cl)cc23)[C@@H](C)C1` [Example 55-13, 6-chloro-7-(2-fluorophenyl)-1-(4-methyl-6-(2-propanyl)-5-pyrimidinyl)-4-((2S)-2-methyl-4-(2-propenoyl)-1-piperazinyl)pyrido[2,3-d]pyrimidin-2(1H)-one]: the IC50 in experiment [1] turned out to be 0.179 µM. Besides, in experiment [2], the “Coupled exchange IC50 (5 min)” value was 0.191 | nda μM.
Take `C=CC(=O)N1CCN(c2nc(=O)n(-c3c(C)cccc3C3CC3)c3nc(-c4c(O)cccc4F)c(Cl)cc23)[C@@H](C)C1` [Example 55-15, 6-chloro-1-(2-cyclopropyl-6-methylphenyl)-7-(2-fluoro-6-hydroxyphenyl)-4-((2S)-2-methyl-4-(2-propenoyl)-1-piperazinyl)pyrido[2,3-d]pyrimidin-2(1H)-one]: the IC50 in experiment [1] was 0.092 µM. In addition, the “Coupled exchange IC50 (5 min)” value in experiment [2] was 0.055 | nda μM.
As for `C=CC(=O)N1CCN(c2nc(=O)n(-c3c(C)cc(N(C)C)cc3C(C)C)c3nc(-c4ccccc4F)c(Cl)cc23)[C@@H](C)C1` [Example 55-16, 6-chloro-1-(4-(dimethylamino)-2-methyl-6-(2-propanyl)phenyl)-7-(2-fluorophenyl)-4-((2S)-2-methyl-4-(2-propenoyl)-1-piperazinyl)pyrido[2,3-d]pyrimidin-2(1H)-one], the IC50 in experiment [1] came to 0.199 µM. In addition, the “Coupled exchange IC50 (5 min)” value in experiment [2] is on record as 0.154 | nda μM.
